Assay results as given in patent US12629370B2, “Treatment of prostate cancer” (Sumitomo Pharma Co., Ltd., priority 2016, dated 2026).
Entries after “also recorded” stand apart in the source; their conditions may differ.

Assays:
[1] = test system: FSH; assay: Example 8: FSH levels; format: in vivo, human; conditions: for FSH Mean (Std Dev) / FSH Median: Leuprorelin Q12W;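 for all read-outs here: FSH determined at every study visit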
[2] = test system: serum testosterone; assay: Example 8: serum testosterone in men with advanced prostate cancer, versus leuprolide acetate; format: in vivo, human; conditions: for Testosterone Mean (Std Dev) / Testosterone Median / Median testosterone: Leuprorelin Q12W
Source text: Eligible men were aged ≥18 years with a histologically confirmed diagnosis of prostate adenocarcinoma, and were candidates for ADT for the management of hormone-sensitive prostate cancer with one of the following clinical disease states: advanced localized disease not suitable for primary surgical or radiation therapy; evidence of PSA biochemical or clinical relapse following primary surgery or radiation therapy of curative intent; or newly diagnosed metastatic disease that was asymptomatic and without visceral involvement. […] Patients with advanced, localized MON1 or M1 disease with clinically significant symptoms or visceral involvement, who required immediate GnRH therapy, chemotherapy, or radiation therapy were not eligible for the trial.
Serum testosterone levels were measured at each visit.

[3] = test system: patients with advanced prostate cancer; assay: Example 8: treatment-emergent adverse events (safety population)
Description: The core tablets were coated with a film coating comprising hypromellose 2910 (21.36 mg), titanium dioxide (2.4 mg), and red ferric oxide (0.06 mg).
For patients receiving leuprolide acetate (leuprorelin), on-treatment study visits occurred at baseline (day 1, week 1), day 1 of weeks 2, 3, and 5, and then every 4 weeks until week 25, and then at 12 week intervals (week 37 and 49). Patients on leuprorelin received their final injection at week 37, day 1, and the week 49, day 1 visit was considered the end of leuprorelin exposure. Patients receiving leuprorelin at visits at 16 (EOT), 20 (follow-up visit), and 24 (EOS) weeks after the last leuprorelin injection.
Efficacy and safety analyses were conducted using a safety population (received ≥1 dose of study drug). […] Safety was assessed by recording the incidence, severity, and types of treatment-emergent adverse events; by physical examination (including slit lamp examination of the anterior eye); and by evaluating changes from baseline in weight, vital signs, 12-lead electrocardiogram (ECG), and clinical laboratory parameters. […] Adverse events were coded using the Medical Dictionary for Regulatory Activities version 19.0 and graded according to National Cancer Institute Common Terminology Criteria version 4.03 (Tables 7 and 8). Safety-related haematology, chemistry, and urinalysis measurements were taken at each study visit and analysed at a central laboratory (LabCorp). Phospholipidosis was assessed as part of the safety assessments.

[4] = test system: PSA; assay: Example 8: PSA response; format: in vivo, human
Source text: Eligible men were aged ≥18 years with a histologically confirmed diagnosis of prostate adenocarcinoma, and were candidates for ADT for the management of hormone-sensitive prostate cancer with one of the following clinical disease states: advanced localized disease not suitable for primary surgical or radiation therapy; evidence of PSA biochemical or clinical relapse following primary surgery or radiation therapy of curative intent; or newly diagnosed metastatic disease that was asymptomatic and without visceral involvement. Additional inclusion criteria at screening included: eugonadal serum testosterone >150 ng/dl (5.2 nmol/L); serum PSA concentration >2 ng/ml (or, when applicable, >0.2 ng/ml following radical prostatectomy or >2 ng/mL above the post-radiotherapy nadir following radiotherapy); body mass index ≥18.0 at screening and/or baseline (i.e., the subject's BMI prior to treatment commencing); and Eastern Cooperative Oncology Group (ECOG) performance status of 0 or 1. Patients with advanced, localized MON1 or M1 disease with clinically significant symptoms or visceral involvement, who required immediate GnRH therapy, chemotherapy, or radiation therapy were not eligible for the trial.
PSA levels were measured at each visit.

[5] = test system: patients with advanced prostate cancer; assay: Example 8: quality of life, Aging Male Survey (AMS); format: in vivo, human; conditions: Leuprorelin Q12W
Description: Quality of life (QoL) was assessed throughout the study and the follow-up period. The 25-item Prostate Cancer Module of the European Organization for Research and Treatment of Cancer Quality of Life Questionnaire (EORTC QLQ-PR25), Aging Male Survey (AMS), and core 30-item EORTC Quality of Life Questionnaire (EORTC QLQ-C30) were completed at screening, day 1 of weeks 5, 13, 25, 37, and 49, and, if applicable, at the follow-up visits.

CCNC(=O)[C@@H]1CCCN1C(=O)[C@H](CCCNC(=N)N)NC(=O)[C@H](CC(C)C)NC(=O)[C@@H](CC(C)C)NC(=O)[C@H](Cc1ccc(O)cc1)NC(=O)[C@H](CO)NC(=O)[C@H](Cc1c[nH]c2ccccc12)NC(=O)[C@H](Cc1c[nH]cn1)NC(=O)[C@@H]1CCC(=O)N1 [Leuprorelin, leuprolide acetate]
FSH Mean (Std Dev) ([1]; Baseline): 19.688 (19.1894) IU/L | FSH Median ([1]; Baseline): 14.500 IU/L | FSH Mean (Std Dev) ([1]; Week 2, Day 1): 7.650 (5.4542) IU/L | FSH Median ([1]; Week 2, Day 1): 5.150 IU/L | FSH Mean (Std Dev) ([1]; Week 5, Day 1): 2.946 (1.4428) IU/L | FSH Median ([1]; Week 5, Day 1): 2.550 IU/L | FSH Mean (Std Dev) ([1]; Week 13, Day 1): 4.625 (2.5594) IU/L | FSH Median ([1]; Week 13, Day 1): 3.600 IU/L | FSH Mean (Std Dev) ([1]; Week 25, Day 1): 5.043 (2.8221) IU/L | FSH Median ([1]; Week 25, Day 1): 4.400 IU/L | FSH Mean (Std Dev) ([1]; Week 49, Day 1): 5.145 (2.8201) IU/L | FSH Median ([1]; Week 49, Day 1): 4.250 IU/L | median FSH ([1]; after 48 weeks of treatment): ~4.2 mIU/mL | Testosterone Mean (Std Dev) ([2]; Baseline): 11.363 (5,0204) nmol/L | Testosterone Median ([2]; Baseline): 11.120 nmol/L | Median testosterone ([2]; EOS): 13.5 ng/dL | Median testosterone ([2]; EOT): 9.8 ng/dL | Testosterone Mean (Std Dev) ([2]; End of Study): 1.695 (3.0345) nmol/L | Testosterone Median ([2]; End of Study): 0.470 nmol/L | Testosterone Mean (Std Dev) ([2]; End of Treatment): 0.641 (0.9616) nmol/L | Testosterone Median ([2]; End of Treatment): 0.340 nmol/L | Testosterone Mean (Std Dev) ([2]; Follow-Up): 0.992 (2.2948) nmol/L | Testosterone Median ([2]; Follow-Up): 0.340 nmol/L | Median testosterone ([2]; Follow-up visit): 9.8 ng/dL | Testosterone Mean (Std Dev) ([2]; Week 49, Day 1): 0.478 (0.6313) nmol/L | Testosterone Median ([2]; Week 49, Day 1): 0.300 nmol/L | course of serum testosterone levels ([2]; leuprolide acetate 22.5 mg SC): rose during the first 1-2 weeks of therapy then declined to castration levels by Week 5 Day 1; also recorded: rose during the first 1 to 2 weeks of therapy then declined to castrate levels by Week 5 Day 1 | Cerebral haemorrhage, Grade ≥3 ([3]; Leuprorelin Q12W): 0 n (%) | Cerebrovascular accident, Grade ≥3 ([3]; Leuprorelin Q12W): 0 n (%) | Death (Table 7) ([3]; Leuprorelin Q12W): 1 (4) n (%) | Death, Grade ≥3 (Table 8) ([3]; Leuprorelin Q12W): 0 n (%) | Musculoskeletal pain, Grade ≥3 ([3]; Leuprorelin Q12W): 0 n (%) | Sudden death, Grade ≥3 ([3]; Leuprorelin Q12W): 0 n (%) | Acute coronary syndrome, Grade ≥3 ([3]; in vivo): 0 n (%) | Adverse event resulting in study drug discontinuation ([3]; in vivo): 0 n (%) | Alanine aminotransferase increased, Grade ≥3 ([3]; in vivo): 0 n (%) | Any adverse event ([3]; in vivo): 23 (96) n (%) | Arthralgia, Grade ≥3 (Table 8) ([3]; in vivo): 0 n (%) | Aspartate aminotransferase increased, Grade ≥3 ([3]; in vivo): 0 n (%) | Atrial flutter, Grade ≥3 ([3]; in vivo): 0 n (%) | Bladder cancer, Grade ≥3 ([3]; in vivo): 0 n (%) | Cervical vertebral fracture, Grade ≥3 ([3]; in vivo): 0 n (%) | Diabetes mellitus, Grade ≥3 ([3]; in vivo): 1 (4) n (%) | Drug-related adverse event ([3]; in vivo): 18 (75) n (%) | Fatigue, Grade ≥3 (Table 8) ([3]; in vivo): 0 n (%) | Gamma-glutamyltransferase increased, Grade ≥3 ([3]; in vivo): 0 n (%) | Grade ≥3 adverse event (Table 7) ([3]; in vivo): 2 (8) n (%) | Hypercalcaemia, Grade ≥3 ([3]; in vivo): 0 n (%) | Hypertension, Grade ≥3 ([3]; in vivo): 0 n (%) | Hypotension, Grade ≥3 ([3]; in vivo): 0 n (%) | Inguinal hernia, Grade ≥3 ([3]; in vivo): 0 n (%) | Joint dislocation, Grade ≥3 ([3]; in vivo): 0 n (%) | Metastases to bone, Grade ≥3 ([3]; in vivo): 0 n (%) | Myocardial infarction, Grade ≥3 ([3]; in vivo): 1 (4) n (%) | Non-cardiac chest pain, Grade ≥3 ([3]; in vivo): 0 n (%) | Osteoarthritis, Grade ≥3 ([3]; in vivo): 0 n (%) | Patients with at least 1 Grade ≥3 adverse events (Table 8) ([3]; in vivo): 2 (8) n (%) | Procedural pain, Grade ≥3 ([3]; in vivo): 0 n (%) | Sepsis, Grade ≥3 ([3]; in vivo): 0 n (%) | Serious adverse event ([3]; in vivo): 2 (8) n (%) | Syncope, Grade ≥3 ([3]; in vivo): 0 n (%) | Transient ischaemic attack, Grade ≥3 ([3]; in vivo): 0 n (%) | Urinary tract infection, Grade ≥3 ([3]; in vivo): 0 n (%) | hot flush (most common adverse event), patients ([3]; in vivo): 15 (63%) n (%) | Median time from first dose to PSA nadir ([4]; Leuprolide Q12W): 20.5 Weeks | patients with ≥50% serum PSA reduction ([4]; after 4 weeks of treatment): 20% | patients with ≥90% serum PSA reduction ([4]; after 4 weeks of treatment): 0% | AMS total score, mean ([5]; Baseline): 28.3 | AMS total score after treatment, mean (95% CI) percent change from baseline ([5]; EOS): 49.9 (21.0-78.7) % | AMS total score after treatment, mean (95% CI) percent change from baseline ([5]; EOT): 61.0 (22.7-99.2) % | AMS total score after treatment, mean (95% CI) percent change from baseline ([5]; Follow-up): 53.8 (18.2-89.4) % | AMS total score, mean percent change from baseline ([5]; W5, D1): 10.1% | AMS total score, mean percent change from baseline ([5]; W13, D1): 21.9% | AMS total score, mean percent change from baseline ([5]; W25, D1): 47.0% | AMS total score, mean percent change from baseline ([5]; W37, D1): 49.4% | AMS total score, mean percent change from baseline ([5]; W49, D1): 60.0%
